How the values were obtained:
Assay in all cases: relative viability (nuclei count vs DMSO), 5 days (fraction); higher = more cells survive
AGI-6780 + Palbociclib = compound: O=C(Nc1cccc(C(F)(F)F)c1)Nc1cc(S(=O)(=O)NC2CC2)ccc1-c1ccsc1 [AGI-6780] + CC(=O)c1c(C)c2cnc(Nc3ccc(N4CCNCC4)cn3)nc2n(C2CCCC2)c1=O [Palbociclib] (partner 0.5 µM)
How it was run: (§1)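 After 5 days of treatment, lung cancer cells in 1536-well plates were fixed and stained in a single step (final 0.05% Triton X-100, 1% formaldehyde, 1 ug/ml Hoechst) and their nuclei counted on 4× images. Treatment had been applied by pin tool the day after seeding as one drug alone or as a fixed anchor-drug dose with five library-drug doses (not always all listed) in √10 steps. Relative viability is the nuclei count of treated wells divided by that of vehicle wells, and values are medians of duplicate plates.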

AGI-6780 + Alpelisib = compound: O=C(Nc1cccc(C(F)(F)F)c1)Nc1cc(S(=O)(=O)NC2CC2)ccc1-c1ccsc1 [AGI-6780] + Cc1nc(NC(=O)N2CCC[C@H]2C(N)=O)sc1-c1ccnc(C(C)(C)C(F)(F)F)c1 [Alpelisib] (partner 2 µM)
How it was run: as §1

AGI-6780 + Pemetrexed = compound: O=C(Nc1cccc(C(F)(F)F)c1)Nc1cc(S(=O)(=O)NC2CC2)ccc1-c1ccsc1 [AGI-6780] + Nc1nc2[nH]cc(CCc3ccc(C(=O)N[C@@H](CCC(=O)O)C(=O)O)cc3)c2c(=O)[nH]1 [Pemetrexed] (partner 0.2 µM)
How it was run: as §1

AGI-6780 + Olaparib = compound: O=C(Nc1cccc(C(F)(F)F)c1)Nc1cc(S(=O)(=O)NC2CC2)ccc1-c1ccsc1 [AGI-6780] + O=C(c1cc(Cc2n[nH]c(=O)c3ccccc23)ccc1F)N1CCN(C(=O)C2CC2)CC1 [Olaparib] (partner 8 µM)
How it was run: as §1

Cell Line | relative viability (AGI-6780 + Palbociclib; first compound 0.08 µM) | relative viability (AGI-6780 + Palbociclib; first compound 0.253 µM) | relative viability (AGI-6780 + Palbociclib; first compound 0.8 µM) | relative viability (AGI-6780 + Palbociclib; first compound 2.53 µM) | relative viability (AGI-6780 + Palbociclib; first compound 8 µM) | relative viability (AGI-6780 + Alpelisib; first compound 0.08 µM) | relative viability (AGI-6780 + Alpelisib; first compound 0.253 µM) | relative viability (AGI-6780 + Alpelisib; first compound 0.8 µM) | relative viability (AGI-6780 + Alpelisib; first compound 2.53 µM) | relative viability (AGI-6780 + Alpelisib; first compound 8 µM) | relative viability (AGI-6780 + Pemetrexed; first compound 0.08 µM) | relative viability (AGI-6780 + Pemetrexed; first compound 0.253 µM) | relative viability (AGI-6780 + Pemetrexed; first compound 0.8 µM) | relative viability (AGI-6780 + Pemetrexed; first compound 2.53 µM) | relative viability (AGI-6780 + Pemetrexed; first compound 8 µM) | relative viability (AGI-6780 + Olaparib; first compound 0.08 µM) | relative viability (AGI-6780 + Olaparib; first compound 0.253 µM) | relative viability (AGI-6780 + Olaparib; first compound 0.8 µM) | relative viability (AGI-6780 + Olaparib; first compound 2.53 µM) | relative viability (AGI-6780 + Olaparib; first compound 8 µM)
EKVX | 0.411 | 0.368 | 0.368 | 0.352 | 0.406 | 0.96 | 0.839 | 0.995 | 0.755 | 0.898 | 0.381 | 0.403 | 0.342 | 0.388 | 0.4 | 0.894 | 0.811 | 0.935 | 0.763 | 0.863
EMC-BAC-2 | – | 0.535 | 0.487 | 0.437 | 0.543 | 0.797 | 0.73 | 0.756 | 0.67 | 0.778 | – | 0.434 | 0.43 | 0.55 | 0.44 | – | 0.477 | 0.409 | 0.45 | 0.53
EPLC-272H | 0.318 | 0.356 | 0.318 | 0.337 | 0.329 | 0.88 | 0.972 | 0.927 | 0.785 | 0.864 | 0.302 | 0.4 | 0.27 | 0.398 | 0.272 | 0.748 | 0.827 | 0.633 | 0.732 | 0.942
H3255 | 0.292 | 0.304 | 0.307 | 0.315 | 0.31 | 0.687 | 0.62 | 0.728 | 0.468 | 0.754 | 0.554 | 0.549 | 0.636 | 0.629 | 0.581 | 0.505 | 0.526 | 0.607 | 0.566 | 0.632
HARA | 0.235 | 0.271 | 0.167 | 0.257 | 0.278 | 0.925 | 0.834 | 0.585 | 0.801 | 0.974 | 0.248 | 0.266 | 0.199 | 0.271 | 0.239 | 0.847 | 0.945 | 0.311 | 0.893 | 0.83
HCC-15 | 0.787 | 0.649 | 0.689 | 0.718 | 0.728 | 0.883 | 0.91 | 0.939 | 0.712 | 0.919 | 0.227 | 0.245 | 0.204 | 0.215 | 0.207 | 0.724 | 0.808 | 0.703 | 0.657 | 0.76
HCC-44 | 0.969 | 0.978 | 0.959 | 0.99 | 0.966 | 0.874 | 0.755 | 0.826 | 0.626 | 0.817 | 0.657 | 0.681 | 0.601 | 0.631 | 0.616 | 1.03 | 0.989 | 0.98 | 0.979 | 1.02
HCC-78 | 0.457 | 0.395 | 0.443 | 0.42 | 0.458 | 0.366 | 0.331 | 0.462 | 0.32 | 0.361 | 0.957 | 0.859 | 0.908 | 0.85 | 0.927 | 0.897 | 0.798 | 1.06 | 0.665 | 0.849
